Data: patent US20250325562A1, “Intravenous Ganaxolone Formulations and Methods of Use in Treating Status Epilepticus and Other Seizure Disorders” (MARINUS PHARMACEUTICALS, INC., priority 2015, published 2025)

System: pilocarpine induced status epilepticus (SE)
Assay: Pilocarpine-induced status epilepticus in rats, cortical EEG power
Format: in vivo, Male Sprague-Dawley rats
Design: key to Treatment effect on EEG power vs vehicle, significance: * P < 0.05; ** P < 0.01; *** P < 0.001; **** P < 0.0001; ns = not significant
Settings: 12 mg/kg IV
Procedure: This study was designed to determine the ability of a CAPTISOL-ganaxolone (GNX) formulation administered intravenously (IV) at 12 and 15 mg/kg to inhibit pilocarpine induced status epilepticus (SE). Allopregnanolone (Allo) (15 mg/kg; IV) was also evaluated for comparison. In this study, test drugs were administered either 15 or 60 minutes after onset of SE and compared to vehicle (30% Captisol).
Cortical EEG activity was recorded in rats before and after administration of pilocarpine to induce SE. Animals were pre-treated with LiCl to enhance and improve reliability of seizure induction and scopolamine to reduce peripheral cholinergic side effects of pilocarpine. EEG activity was recorded for 5 h after SE onset, and anticonvulsant activity was assessed by determining changes in EEG power over frequency ranges from 0.3 to 96 Hz.
Male Sprague-Dawley rats were used for the studies. Rats were surgically implanted with EEG electrodes and jugular vein catheters. The mean weight at the time of recording was 321+3 g (269-351 g).
EEG electrodes were surgically implanted in anesthetized rats. Animals were also treated with an anti-inflammatory anaelgesic (RIMADYL, (carprofen)) prior to surgery and a subcutaneous local anesthetic. Stainless steel screw electrodes chronically were implanted in the skull (0-80×¼″, Plastics-One, Roanoke, VA) such that the ends of the screws were flush with the inner skull surface. One electrode was located 3.0 mm anterior to bregma and 2 mm to the left of midline, and the second 4.0 mm posterior to bregma and 2.5 mm to the right of midline. The skull surface around the electrodes was sealed with super glue and dental acrylic, and the EEG electrode lead wires were inserted into a plastic pedestal mounted on the skull using dental acrylic. Wound edges were treated with triple antibiotic cream (bacitracin zinc, neomycin sulfate, polymyxin B sulfate; Walgreens). Following surgery, animals were administered antibiotic (ampicillin, 50 mg/kg IP at 0.4 mL/kg) and also received a chewable dose (˜10 mg) of Rimadyl following surgery. The animals were allowed to recover from EEG surgery for 1 week.
Rats were implanted with jugular-vein catheters (JVC) one week following EEG surgery. Rats were administered an anti-inflammatory/analgesic and then anesthetized and placed in a supine position. An incision was made in the skin on the right ventrolateral aspect of the neck to expose the external jugular vein which was then dissected free of surrounding fascia. A ligature was tied around the vein anteriorly to occlude blood flow returning to the heart. A second ligature was loosely tied around the vein posteriorly to create tension on the vessel during venotomy and catheter insertion. After incising the vein, a PE catheter (3Fr) was inserted into the vein and advanced approximately 30 mm towards the heart, positioning the tip at the junction of the precava and right atrium. After confirming patency of the catheter by blood withdrawal, the posterior ligature was tied off, and the catheter flushed with a “heparin-lock” solution (5 units heparin/ml saline) and plugged with a sterilized stainless steel pin. The catheter was then exteriorized by tunneling through the subcutaneous tissue to exit posterior to the head between the shoulder blades. Lastly, after suturing the catheter to the skin, all wounds were closed using sutures or wound clips. Immediately following surgery, the animals were awakened to assess catheter patency. Animals also received a chewable dose (˜10 mg) of Rimadyl following surgery to minimize pain and inflammation.
Animals were allowed a 1-week recovery time following JVC surgery. Jugular vein catheters were flushed daily with a 0.1 mL of heparin solution (5 units/mL) to maintain patency. On the day of surgery, the flushing solution contained ampicillin sulbactam (50 mg/kg). […]

CC(=O)[C@H]1CC[C@H]2[C@@H]3CC[C@H]4C[C@](C)(O)CC[C@]4(C)[C@H]3CC[C@]12C [Ganaxolone, 3α-hydroxy, 3β-methyl-5α-pregnan-20-one]
Treatment effect on EEG power vs vehicle, significance (15 min post SE onset, 0-5 Hz, 0-15 min. post drug): **** (**** P < 0.0001) | Treatment effect on EEG power vs vehicle, significance (15 min post SE onset, 0-5 Hz, 1-2 hrs post drug): **** (**** P < 0.0001) | Treatment effect on EEG power vs vehicle, significance (15 min post SE onset, 0-5 Hz, 2-3 hrs post drug): *** (*** P < 0.001) | Treatment effect on EEG power vs vehicle, significance (15 min post SE onset, 0-5 Hz, 3-5 hrs post drug): ** (** P < 0.01) | Treatment effect on EEG power vs vehicle, significance (15 min post SE onset, 0-5 Hz, 15-30 min post drug): **** (**** P < 0.0001) | Treatment effect on EEG power vs vehicle, significance (15 min post SE onset, 0-5 Hz, 30-60 min post drug): **** (**** P < 0.0001) | Treatment effect on EEG power vs vehicle, significance (15 min post SE onset, 5-10 Hz, 0-15 min. post drug): **** (**** P < 0.0001) | Treatment effect on EEG power vs vehicle, significance (15 min post SE onset, 5-10 Hz, 1-2 hrs post drug): ** (** P < 0.01) | Treatment effect on EEG power vs vehicle, significance (15 min post SE onset, 5-10 Hz, 2-3 hrs post drug): * (* P < 0.05) | Treatment effect on EEG power vs vehicle, significance (15 min post SE onset, 5-10 Hz, 3-5 hrs post drug): ns | Treatment effect on EEG power vs vehicle, significance (15 min post SE onset, 5-10 Hz, 15-30 min post drug): **** (**** P < 0.0001) | Treatment effect on EEG power vs vehicle, significance (15 min post SE onset, 5-10 Hz, 30-60 min post drug): *** (*** P < 0.001) | Treatment effect on EEG power vs vehicle, significance (15 min post SE onset, 10-30 Hz, 0-15 min. post drug): *** (*** P < 0.001) | Treatment effect on EEG power vs vehicle, significance (15 min post SE onset, 10-30 Hz, 1-2 hrs post drug): * (* P < 0.05) | Treatment effect on EEG power vs vehicle, significance (15 min post SE onset, 10-30 Hz, 2-3 hrs post drug): ns | Treatment effect on EEG power vs vehicle, significance (15 min post SE onset, 10-30 Hz, 3-5 hrs post drug): ns | Treatment effect on EEG power vs vehicle, significance (15 min post SE onset, 10-30 Hz, 15-30 min post drug): **** (**** P < 0.0001) | Treatment effect on EEG power vs vehicle, significance (15 min post SE onset, 10-30 Hz, 30-60 min post drug): ** (** P < 0.01) | Treatment effect on EEG power vs vehicle, significance (15 min post SE onset, 30-50 Hz, 0-15 min. post drug): *** (*** P < 0.001) | Treatment effect on EEG power vs vehicle, significance (15 min post SE onset, 30-50 Hz, 1-2 hrs post drug): * (* P < 0.05) | Treatment effect on EEG power vs vehicle, significance (15 min post SE onset, 30-50 Hz, 2-3 hrs post drug): ns | Treatment effect on EEG power vs vehicle, significance (15 min post SE onset, 30-50 Hz, 3-5 hrs post drug): ns | Treatment effect on EEG power vs vehicle, significance (15 min post SE onset, 30-50 Hz, 15-30 min post drug): *** (*** P < 0.001) | Treatment effect on EEG power vs vehicle, significance (15 min post SE onset, 30-50 Hz, 30-60 min post drug): ** (** P < 0.01) | Treatment effect on EEG power vs vehicle, significance (15 min post SE onset, 50-70 Hz, 0-15 min. post drug): ** (** P < 0.01) | Treatment effect on EEG power vs vehicle, significance (15 min post SE onset, 50-70 Hz, 1-2 hrs post drug): ** (** P < 0.01) | Treatment effect on EEG power vs vehicle, significance (15 min post SE onset, 50-70 Hz, 2-3 hrs post drug): ns | Treatment effect on EEG power vs vehicle, significance (15 min post SE onset, 50-70 Hz, 3-5 hrs post drug): ns | Treatment effect on EEG power vs vehicle, significance (15 min post SE onset, 50-70 Hz, 15-30 min post drug): ** (** P < 0.01) | Treatment effect on EEG power vs vehicle, significance (15 min post SE onset, 50-70 Hz, 30-60 min post drug): * (* P < 0.05) | Treatment effect on EEG power vs vehicle, significance (15 min post SE onset, 70-96 Hz, 0-15 min. post drug): ** (** P < 0.01) | Treatment effect on EEG power vs vehicle, significance (15 min post SE onset, 70-96 Hz, 1-2 hrs post drug): ** (** P < 0.01) | Treatment effect on EEG power vs vehicle, significance (15 min post SE onset, 70-96 Hz, 2-3 hrs post drug): ns | Treatment effect on EEG power vs vehicle, significance (15 min post SE onset, 70-96 Hz, 3-5 hrs post drug): ns | Treatment effect on EEG power vs vehicle, significance (15 min post SE onset, 70-96 Hz, 15-30 min post drug): ** (** P < 0.01) | Treatment effect on EEG power vs vehicle, significance (15 min post SE onset, 70-96 Hz, 30-60 min post drug): * (* P < 0.05) | Treatment effect on EEG power vs vehicle, significance (60 min post SE onset, 0-5 Hz, 0-15 min. post drug): *** (*** P < 0.001) | Treatment effect on EEG power vs vehicle, significance (60 min post SE onset, 0-5 Hz, 1-2 hrs post drug): **** (**** P < 0.0001) | Treatment effect on EEG power vs vehicle, significance (60 min post SE onset, 0-5 Hz, 2-3 hrs post drug): *** (*** P < 0.001) | Treatment effect on EEG power vs vehicle, significance (60 min post SE onset, 0-5 Hz, 3-5 hrs post drug): ** (** P < 0.01) | Treatment effect on EEG power vs vehicle, significance (60 min post SE onset, 0-5 Hz, 15-30 min post drug): **** (**** P < 0.0001) | Treatment effect on EEG power vs vehicle, significance (60 min post SE onset, 0-5 Hz, 30-60 min post drug): **** (**** P < 0.0001) | Treatment effect on EEG power vs vehicle, significance (60 min post SE onset, 5-10 Hz, 0-15 min. post drug): **** (**** P < 0.0001) | Treatment effect on EEG power vs vehicle, significance (60 min post SE onset, 5-10 Hz, 1-2 hrs post drug): *** (*** P < 0.001) | Treatment effect on EEG power vs vehicle, significance (60 min post SE onset, 5-10 Hz, 2-3 hrs post drug): ** (** P < 0.01) | Treatment effect on EEG power vs vehicle, significance (60 min post SE onset, 5-10 Hz, 3-5 hrs post drug): ns | Treatment effect on EEG power vs vehicle, significance (60 min post SE onset, 5-10 Hz, 15-30 min post drug): **** (**** P < 0.0001) | Treatment effect on EEG power vs vehicle, significance (60 min post SE onset, 5-10 Hz, 30-60 min post drug): **** (**** P < 0.0001) | Treatment effect on EEG power vs vehicle, significance (60 min post SE onset, 10-30 Hz, 0-15 min. post drug): * (* P < 0.05) | Treatment effect on EEG power vs vehicle, significance (60 min post SE onset, 10-30 Hz, 1-2 hrs post drug): ** (** P < 0.01) | Treatment effect on EEG power vs vehicle, significance (60 min post SE onset, 10-30 Hz, 2-3 hrs post drug): * (* P < 0.05)
